Experiment [1] addresses T1, VEGFR2 (Homo sapiens, UniProt P35968).
T1 construct: purchased Upstate
Kind of experiment: VEGFR2 in vitro kinase inhibitory activity assay. Format: biochemical. As to conditions: read-out: VEGFR2 IC50(μM) or % I.

The target in experiment [2] is T2, Ba/F3-TEL-FGFR3 cells (Homo sapiens, UniProt P22607).
T2 construct: fused on or other part: TEL (ETV6) N-terminal oligomerising part fused to the FGFR3 kinase part; P41212 (Transcription factor ETV6)
Description: Ba/F3-TEL-FGFR3 cell proliferation assay (Alamar Blue). Format: cell-based, murine. As to conditions: 72 hours; read-out: BaF3-TEL-FGFR3 prolif. The protocol: Ba/F3-TEL-FGFR3 & Ba/F3 (WT) Cell Proliferation Assays
Stably transfected Ba/F3-TEL-FGFR3 cells were plated out into black 96-well tissue culture plates with clear bottoms in RPMI medium containing 10% FBS and 0.25 mg/ml G418 at a density of 5×10^3 cells/well (200 μl per well). The parental wild-type Ba/F3 cells (DSMZ no.: ACC 300) were plated out into black 96-well tissue culture plates with clear bottoms in RPMI medium containing 10% FBS and 2 ng/ml mouse IL-3 (R&D Systems) at a density of 2.5×10^3 cells/well (200 μl per well). Plates were placed in an incubator overnight before adding the compounds the following day. Dilutions of compounds were made in DMSO starting at 10 mM and were diluted into the wells to give a final DMSO concentration of 0.1% in assay. Compounds were left on the cells for 72 hours before the plates were removed from the incubator and 20 μl of Alamar Blue™ (Biosource) was added to each well. Plates were placed in the incubator for 4-6 hours before reading plates at 535 nm (excitation)/590 nm (emission) on a Fusion plate reader (Packard). Where inhibition is high an IC50 can be determined.
(In general: Alamar Blue is a resazurin reagent that responds to reducing activity.)

The subject of experiment [3] is human prostate cancer PC3 cells. Description: EB1 cellular assay (Eb1 Comet assay, microtubule disruption). Format: cell-based. Particulars: PC-3, lowest active concentration: Eb1 foci absent in at least 50% of treated PC3 cells, 1 hour, read-out: Eb1 LAC. The protocol:
The Eb1 Comet assay relies on the detection of the Eb1 protein at the plus end of polymerizing microtubules (Mimori-Kiyosue, 2000) using indirect immunofluorescence. Disruption of microtubule dynamics through de-polymerization or stabilization results in a de-localization of Eb1 from the growing microtubule ends and this is visualized by the disappearance of Eb1 containing cytoplasmic foci.
Briefly, human prostate cancer PC3 cells obtained from the American Type Culture Collection were grown in 96-well plates (Greiner, cat. no. 655090) in HAM's F12 medium as recommended by the provider (ATCC). The cells were treated for 1 hour at 37° C. with compounds dissolved in DMSO (0.6% final DMSO concentration). The culture medium was then removed by aspiration and the cells were fixed by adding cold methanol (−20° C.). After a 15 minutes incubation at −20° C., the cells were washed twice with DPBS (Gibco) containing 0.5% Triton X-100. Mouse Eb1 antibody (BD Transduction Laboratories, cat. no. 610534) was added to the cells (1/250 dilution in DPBS containing 1% BSA) and incubated overnight at room temperature. The antibody was subsequently removed and the cells washed twice with DPBS, 0.5% Triton X-100. Secondary goat anti-mouse antibody conjugated to Alexa 488 fluorescent dye (Molecular Probes) was added at a 1/500 dilution in DPBS, 1% BSA and incubated for 1 hour at 37° C. The cells were washed twice with DPBS, 0.5% Triton X-100 and then DPBS containing 0.5% Triton X-100 and 1/5000 Hoechst 33342 (Molecular Probes) was added. Microscopy based Eb1 foci visualization was carried out using an IN Cell Analyser 1000 (Amersham Biosciences) using a 20× objective. Compound dependent microtubule disruption was visually determined by the disappearance in Eb1 foci. The lowest active concentration (LAC) was determined as the concentration where Eb1 foci were absent in at least 50% of the treated cells. Herein the effects of test compounds are expressed as pLAC (the negative log value of the LAC-value)

Experiment [4] deals with Ba/F3-Flt3 cells. Kind of experiment: Ba/F3-Flt3 assay (Alamar Blue). Format: cell-based, murine. As to conditions: Mus musculus, 24 h; with 10 ng/ml murine IL3; read-out: Ba/F3-flt3 + IL3 pIC50 (converted). The source says:
Ba/F3, a murine interleukin-3 dependent pro-B cell line is increasingly popular as a model system for assessing both the potency and downstream signaling of kinase oncogenes, and the ability of small-molecule kinase inhibitors to block kinase activity. Facilitated by their growth properties. Ba/F3 cells have recently been adapted to high throughput assay formats for compound profiling. Further, several published approaches show promise in predicting resistance to small-molecule kinase inhibitors elicited by point mutations interfering with inhibitor binding (Ba/F3 cells and their use in kinase drug discovery; Markus Warmuth, Sungjoon Kim, Xiang-ju Gu, Gang Xia and Francisco Adria'n; Curr Opin Oncol 19:55-60).
Ba/F3-Flt3 cells (cultured in phenol red free RPMI-1640, 10% A FCS and 50 μg/ml Gentamycin at 37° C. and 5% 002) were plated at a density of 10000 cells in a total volume of 180 μl medium in a black TC-treated sterile 96-well plate (Corning). After 24 hours, drugs in different dilutions were added to a final volume of 200 μl and at a final DMSO concentration of 0.2% prior to incubation at 37° C., and 5% CO2.
After 24 h, to each well 40 μl Alamar Blue solution (Aldrich) was added and the cells were further incubated for 4 hours at 37° C. Fluorescence (ex. 544, em. 590 nm) was measured using a fluorescence reader (Labsystems) and IC50's were calculated.
In the condition containing IL3, 10 ng/ml of murine IL3 (PeproTech) was added during compound incubation.

Where only a bound is given, the exact number is not on record here.

T1 sequence (P35968 20-1356): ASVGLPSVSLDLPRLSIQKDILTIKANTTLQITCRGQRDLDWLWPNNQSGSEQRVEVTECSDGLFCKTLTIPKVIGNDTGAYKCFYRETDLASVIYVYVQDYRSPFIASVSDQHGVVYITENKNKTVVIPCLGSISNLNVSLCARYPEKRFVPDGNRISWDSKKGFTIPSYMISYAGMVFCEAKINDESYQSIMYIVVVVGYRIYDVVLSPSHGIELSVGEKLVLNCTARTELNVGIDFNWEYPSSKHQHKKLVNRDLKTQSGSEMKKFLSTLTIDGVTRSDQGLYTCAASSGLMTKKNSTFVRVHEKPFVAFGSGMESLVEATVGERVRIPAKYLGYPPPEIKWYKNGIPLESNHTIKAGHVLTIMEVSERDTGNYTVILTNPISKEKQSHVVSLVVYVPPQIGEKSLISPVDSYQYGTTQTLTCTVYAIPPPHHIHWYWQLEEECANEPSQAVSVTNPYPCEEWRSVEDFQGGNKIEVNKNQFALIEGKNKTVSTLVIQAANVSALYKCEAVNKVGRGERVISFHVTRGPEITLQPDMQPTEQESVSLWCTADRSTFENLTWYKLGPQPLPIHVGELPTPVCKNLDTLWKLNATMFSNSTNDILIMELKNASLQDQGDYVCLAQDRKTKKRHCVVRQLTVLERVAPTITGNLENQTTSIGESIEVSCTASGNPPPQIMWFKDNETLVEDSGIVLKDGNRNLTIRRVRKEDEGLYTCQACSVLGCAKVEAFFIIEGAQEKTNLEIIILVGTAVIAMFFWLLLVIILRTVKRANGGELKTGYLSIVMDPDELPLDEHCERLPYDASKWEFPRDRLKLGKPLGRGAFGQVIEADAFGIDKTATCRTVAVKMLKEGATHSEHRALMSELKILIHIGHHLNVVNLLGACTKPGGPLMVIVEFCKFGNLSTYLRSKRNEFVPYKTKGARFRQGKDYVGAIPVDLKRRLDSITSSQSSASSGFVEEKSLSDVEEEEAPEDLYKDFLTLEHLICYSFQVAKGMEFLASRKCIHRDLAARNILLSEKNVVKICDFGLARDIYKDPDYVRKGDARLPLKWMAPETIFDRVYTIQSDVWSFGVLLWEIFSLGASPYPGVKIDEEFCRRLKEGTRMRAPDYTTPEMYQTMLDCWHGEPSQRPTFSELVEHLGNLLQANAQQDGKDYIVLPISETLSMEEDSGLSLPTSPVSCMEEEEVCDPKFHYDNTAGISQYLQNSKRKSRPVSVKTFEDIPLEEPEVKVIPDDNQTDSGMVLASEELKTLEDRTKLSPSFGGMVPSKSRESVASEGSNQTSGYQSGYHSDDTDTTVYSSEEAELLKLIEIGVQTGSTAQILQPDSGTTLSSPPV
T2 sequence (P22607 whole entry, change not shown, the tested form may be a part): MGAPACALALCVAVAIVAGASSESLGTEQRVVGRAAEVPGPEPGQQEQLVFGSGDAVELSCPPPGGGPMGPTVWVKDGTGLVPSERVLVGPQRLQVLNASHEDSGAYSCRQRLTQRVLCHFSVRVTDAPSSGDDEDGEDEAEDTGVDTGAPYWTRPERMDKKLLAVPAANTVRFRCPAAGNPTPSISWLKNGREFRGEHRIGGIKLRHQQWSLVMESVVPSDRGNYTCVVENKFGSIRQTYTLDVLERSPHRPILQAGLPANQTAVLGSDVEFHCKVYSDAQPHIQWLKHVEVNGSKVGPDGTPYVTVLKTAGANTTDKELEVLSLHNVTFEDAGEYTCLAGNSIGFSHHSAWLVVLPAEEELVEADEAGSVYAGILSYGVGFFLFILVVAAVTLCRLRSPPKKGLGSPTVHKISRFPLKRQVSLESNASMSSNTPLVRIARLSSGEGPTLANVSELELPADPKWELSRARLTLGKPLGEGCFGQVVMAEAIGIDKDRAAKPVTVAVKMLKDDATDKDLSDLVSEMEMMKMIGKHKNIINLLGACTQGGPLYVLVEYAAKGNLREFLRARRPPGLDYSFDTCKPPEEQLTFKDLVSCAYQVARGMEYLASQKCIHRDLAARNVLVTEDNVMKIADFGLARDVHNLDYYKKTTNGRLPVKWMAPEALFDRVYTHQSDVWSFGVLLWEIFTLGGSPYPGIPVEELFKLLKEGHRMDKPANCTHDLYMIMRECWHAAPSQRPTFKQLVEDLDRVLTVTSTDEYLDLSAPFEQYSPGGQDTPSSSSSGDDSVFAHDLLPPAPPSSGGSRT

In the case of `CC(C)Oc1cc(NC(=O)NCC(F)(F)F)cc(-c2cnc3cc(N4CCC(F)(F)CC4)ccn23)c1` [Compound F-13, 1-{3-[7-(4,4-Difluoro-piperidin-1-yl)-imidazo[1,2-a]pyridin-3-yl]-5-isopropoxy-phenyl}-3-(2,2,2-trifluoro-ethyl)-urea], the inhibition at 3 µM in experiment [1] (1 h, % I at 3 μM) turned out to be 55%. For the same compound, in experiment [2], the GI50 was found to be 820 nM. Further, the minimal effective concentration in experiment [3] was 5 µM. For the same compound, the IC50 in experiment [4] was greater than 10000 nM.
With `CCOc1cc(NC(=O)NCC(F)(F)F)cc(-c2cnc3cc(-c4nnc(C)o4)ccn23)c1` [Compound F-15, 1-{3-Ethoxy-5-[7-(5-methyl-[1,3,4]oxadiazol-2-yl)-imidazo[1,2-a]pyridin-3-yl]-phenyl}-3-(2,2,2-trifluoro-ethyl)-urea], the IC50 was 0.34 µM in experiment [1] and greater than 10000 nM in experiment [4]. The GI50 in experiment [2] came to 370 nM. The minimal effective concentration in experiment [3] was 10 µM.
The corresponding values for `CCOc1cc(NC(=O)NCC(F)(F)F)cc(-c2cnc3cc(-c4ccnc(C(F)(F)F)n4)ccn23)c1` [Compound F-16, 1-{3-Ethoxy-5-[7-(2-trifluoromethyl-pyrimidin-4-yl)-imidazo[1,2-a]pyridin-3-yl]-phenyl}-3-(2,2,2-trifluoro-ethyl)-urea] are 0.4 µM, greater than 10000 nM, 470 nM and greater than 10 µM.
The corresponding values for `CC(C)Oc1cc(NC(=O)NCC(F)(F)F)cc(-c2cnc3cc(OCCO)ccn23)c1` [Compound F-17, 1-{3-[7-(2-Hydroxy-ethoxy)-imidazo[1,2-a]pyridin-3-yl]-5-isopropoxy-phenyl}-3-(2,2,2-trifluoro-ethyl)-urea] are 0.51 µM, greater than 10000 nM, 500 nM and 3 µM.
`CC(C)Oc1cc(NC(=O)NCC(F)(F)F)cc(-c2cnc3cc(OCCCO)ccn23)c1` [Compound F-18, 1-{3-[7-(3-Hydroxy-propoxy)-imidazo[1,2-a]pyridin-3-yl]-5-isopropoxy-phenyl}-3-(2,2,2-trifluoro-ethyl)-urea]: the results for the IC50 in experiment [1] and in experiment [4] were 0.67 µM and greater than 10000 nM, respectively. For the same compound, the GI50 in experiment [2] worked out at 440 nM. In experiment [3], the minimal effective concentration came to 5 µM.
The corresponding values for `CC(C)Oc1cc(NC(=O)NCC(F)(F)F)cc(-c2cnc3cc(-c4nncs4)ccn23)c1.Cl` [Compound F-19, 1-[3-Isopropoxy-5-(7-[1,3,4]thiadiazol-2-yl-imidazo[1,2-a]pyridin-3-yl)-phenyl]-3-(2,2,2-trifluoro-ethyl)-urea] are 0.092 µM, greater than 10000 nM, 42 nM and 3 µM.
Turning to `Cc1nnc(-c2ccn3c(-c4cc(NC(=O)NCC(F)(F)F)cc(OC(C)C)c4)cnc3c2)s1.Cl` [Compound F-20, 1-{3-Isopropoxy-5-[7-(5-methyl-[1,3,4]thiadiazol-2-yl)-imidazo[1,2-a]pyridin-3-yl]-phenyl}-3-(2,2,2-trifluoro-ethyl)-urea], the IC50 in experiment [1] was 0.029 µM; in experiment [4] it was greater than 10000 nM. The GI50 in experiment [2] is 9 nM. Moreover, in experiment [3], the minimal effective concentration came to 0.1 µM.
For `CCNC(=O)Nc1cc(OC(C)C)cc(-c2cnc3cc(-c4nnc(C)s4)ccn23)c1` [Compound F-23, 1-Ethyl-3-{3-isopropoxy-5-[7-(5-methyl-[1,3,4]thiadiazol-2-yl)-imidazo[1,2-a]pyridin-3-yl]-phenyl}-urea], in that order: 0.087 µM, greater than 10000 nM, 50 nM and 5 µM.
For `CC(C)Oc1cc(NC(=O)NCC(F)(F)F)cc(-c2cnc3cc(-c4nccc(C(C)(C)CO)n4)ccn23)c1` [Compound F-27, 1-(3-{7-[4-(2-Hydroxy-1,1-dimethylethyl)-pyrimidin-2-yl]-imidazo[1,2-a]pyridin-3-yl}-5-isopropoxy-phenyl)-3-(2,2,2-trifluoro-ethyl)-urea], in that order: 1.2 µM, greater than 10000 nM, 1580 nM and greater than 10 µM.

Source of the values: patent US8722687B2, “Imidazo [1,2-A]pyridine derivatives as FGFR kinase inhibitors for use in therapy” (Astex Therapeutics Ltd, priority 2009, dated 2014).
